In patent US11529347B2, “SHP2 phosphatase inhibitors and methods of use thereof” (Relay Therapeutics, Inc., priority 2016, dated 2022):
pIC50: −log10 of the molar value.

Biological target: SHP2 (Homo sapiens (Human), UniProt Q06124)
Assay: SHP2 Allosteric Inhibition Assay (DiFMUP prompt fluorescence)
Type: biochemical
Conditions: 0.25 nM SHP2 activated with 0.5 μM peptide IRS1_pY1172(dPEG8)pY1222; substrate DiFMUP 100 μM
Excerpt: SHP2 is allosterically activated through binding of bis-tyrosyl-phosphorylated peptides to its Src Homology 2 (SH2) domains. The latter activation step leads to the release of the auto-inhibitory interface of SHP2, which in turn renders the SHP2 protein tyrosine phosphatase (PTP) active and available for substrate recognition and reaction catalysis. The catalytic activity of SHP2 was monitored using the surrogate substrate DiFMUP in a prompt fluorescence assay format.
The inhibitor dose response curves were analyzed using normalized IC50 regression curve fitting with control based normalization.

Chain of SHP2 (Q06124 whole entry): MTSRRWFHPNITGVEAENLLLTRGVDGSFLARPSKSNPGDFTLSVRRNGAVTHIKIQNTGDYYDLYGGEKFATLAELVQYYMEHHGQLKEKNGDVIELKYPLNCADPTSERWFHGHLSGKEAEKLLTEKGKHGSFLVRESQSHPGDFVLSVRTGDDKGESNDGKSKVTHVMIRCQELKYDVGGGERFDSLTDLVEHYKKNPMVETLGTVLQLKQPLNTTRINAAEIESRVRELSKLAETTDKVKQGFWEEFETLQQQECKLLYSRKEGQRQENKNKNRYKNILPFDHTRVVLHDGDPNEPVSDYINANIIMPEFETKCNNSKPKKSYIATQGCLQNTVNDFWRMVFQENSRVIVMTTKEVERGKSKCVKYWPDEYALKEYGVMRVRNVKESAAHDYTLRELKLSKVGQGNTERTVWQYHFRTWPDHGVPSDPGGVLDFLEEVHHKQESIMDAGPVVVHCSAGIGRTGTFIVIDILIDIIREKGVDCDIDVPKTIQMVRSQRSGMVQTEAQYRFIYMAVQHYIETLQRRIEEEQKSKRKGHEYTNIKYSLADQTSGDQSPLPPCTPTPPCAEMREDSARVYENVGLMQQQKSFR

Compound | pIC50
COc1cccc(-c2n[nH]c3nc(N4CCC(C)(CN)CC4)cnc23)c1Cl [Compound 39] | > 5.00
CC1(CN)CCN(c2cnc3c(-c4ccncc4)n[nH]c3n2)CC1 [Compound 19] | > 5.00
CC1(CN)CCN(c2cnc3c(-c4cccc(Cl)c4Cl)n[nH]c3n2)CC1 [Compound 10] | > 5.00
N[C@H]1CCCC12CCN(c1cnc3c(-c4ccccc4Cl)n[nH]c3n1)CC2 [Compound 35] | > 5.00
CC1(CN)CCN(c2cnc3c(-c4ncccc4Cl)n[nH]c3n2)CC1 [Compound 22] | 4.00 to 5.00
NC1CCC12CCN(c1cnc3c(-c4ccccc4Cl)n[nH]c3n1)CC2 (stereo not shown) [Compound 28] | > 5.00
CC1(CN)CCN(c2cnc3c(-c4cccc(Cl)c4Br)n[nH]c3n2)CC1 [Compound 34] | > 5.00
Clc1ccccc1-c1n[nH]c2nc(N3C4CCCC3CC4)cnc12 [Compound 8] | 4.00 to 5.00
NCC1(O)CCN(c2cnc3c(-c4cccc(Cl)c4)n[nH]c3n2)CC1 [Compound 25] | > 5.00
NCC1CCCN(c2cnc3c(-c4ccccc4Cl)n[nH]c3n2)CC1 (stereo not shown) [Compound 40] | > 5.00
NCC1CCN(c2cnc3c(-c4cccc(Cl)c4)n[nH]c3n2)C1 (stereo not shown) [Compound 27] | > 5.00
CC1(CN)CCN(c2cnc3c(-c4ccccc4)n[nH]c3n2)CC1 [Compound 15] | > 5.00
Clc1ccccc1-c1n[nH]c2nc(N3CCC4(CCCN4)CC3)cnc12 [Compound 41] | > 5.00
NCC1(O)CCN(c2cnc3c(-c4ccccc4Cl)n[nH]c3n2)CC1 [Compound 52] | > 5.00
CC1(N)CCN(c2cnc3c(-c4cccc(Cl)c4)n[nH]c3n2)CC1 [Compound 31] | > 5.00
NCC1(F)CCN(c2cnc3c(-c4ccccc4Cl)n[nH]c3n2)CC1 [Compound 24] | > 5.00
Clc1ccccc1-c1n[nH]c2nc(N3CC4CNCC4C3)cnc12 (stereo not shown) [Compound 44] | > 5.00
N[C@@H]1CCCC12CCN(c1cnc3c(-c4ccccc4Cl)n[nH]c3n1)CC2 [Compound 16] | > 5.00
CC1(CN)CCN(c2cnc3c(-c4cccc(Cl)c4)n[nH]c3n2)CC1 [Compound 50] | > 5.00
NCC1(N)CCN(c2cnc3c(-c4ccccc4Cl)n[nH]c3n2)CC1 [Compound 46] | > 5.00
CC1(N)CCN(c2cnc3c(-c4ccccc4Cl)n[nH]c3n2)CC1 [Compound 6] | > 5.00
N[C@H]1CCC12CCN(c1cnc3c(-c4ccccc4Cl)n[nH]c3n1)CC2 [Compound 26] | > 5.00
CC1(CN)CCN(c2cnc3c(-c4cccc(Cl)c4F)n[nH]c3n2)CC1 [Compound 48] | > 5.00
COC1(CN)CCN(c2cnc3c(-c4ccccc4Cl)n[nH]c3n2)CC1 [Compound 32] | > 5.00
NCC1(O)CCCN(c2cnc3c(-c4ccccc4Cl)n[nH]c3n2)CC1 (stereo not shown) [Compound 20] | > 5.00

Compound | pIC50
CC1(CN)CCN(c2cnc3c(-c4ccc(Cl)cc4)n[nH]c3n2)CC1 [Compound 29] | > 5.00
N[C@@H]1CCC12CCN(c1cnc3c(-c4ccccc4Cl)n[nH]c3n1)CC2 [Compound 37] | 4.00 to 5.00
O=C1NCC2(CCCN(c3cnc4c(-c5ccccc5Cl)n[nH]c4n3)CC2)O1 (stereo not shown) [Compound 53] | 4.00 to 5.00
Clc1ccccc1-c1n[nH]c2nc(N3CCC4(CCNC4)C3)cnc12 (stereo not shown) [Compound 55] | 4.00 to 5.00
COc1ccccc1-c1n[nH]c2nc(N3CCC(C)(CN)CC3)cnc12 [Compound 54] | > 5.00
NC(=O)C1(N)CCN(c2cnc3c(-c4cccc(Cl)c4)n[nH]c3n2)CC1 [Compound 12] | > 5.00
CC1(N)CCN(c2cnc3c(-c4ccc(Cl)cc4)n[nH]c3n2)CC1 [Compound 17] | > 5.00
N[C@H]1CCN(c2cnc3c(-c4ccccc4Cl)n[nH]c3n2)C[C@@H]1O [Compound 33] | > 5.00
CC(N)C1CCN(c2cnc3c(-c4ccccc4Cl)n[nH]c3n2)CC1 (stereo not shown) [Compound 47] | > 5.00
COCC1(CN)CCN(c2cnc3c(-c4ccccc4Cl)n[nH]c3n2)CC1 [Compound 42] | > 5.00
CC(C)(N)C1CCN(c2cnc3c(-c4ccccc4Cl)n[nH]c3n2)CC1 [Compound 14] | 4.00 to 5.00
NC(CO)C1CCN(c2cnc3c(-c4ccccc4Cl)n[nH]c3n2)CC1 (stereo not shown) [Compound 30] | > 5.00
O=C1NCC2(CCN(c3cnc4c(-c5ccccc5Cl)n[nH]c4n3)CC2)N1 [Compound 11] | 4.00 to 5.00
N[C@H]1CC12CCN(c1cnc3c(-c4ccccc4Cl)n[nH]c3n1)CC2 [Compound 9] | > 5.00
N[C@@H]1[C@H]2CN(c3cnc4c(-c5cccc(Cl)c5)n[nH]c4n3)C[C@@H]12 [Compound F21] | > 5.00
Clc1cccc(-c2n[nH]c3nc(N4CCCCC4)cnc23)c1Cl [Compound 45] | < 4.00
CC1(CN)CCN(c2cnc3c(-c4ccccc4Cl)n[nH]c3n2)CC1 [Compound 43] | > 5.00
NC1CCN(c2cnc3c(-c4ccccc4Cl)n[nH]c3n2)CC1 [Compound 38] | > 5.00
NCC1(CO)CCN(c2cnc3c(-c4ccccc4Cl)n[nH]c3n2)CC1 [Compound 51] | > 5.00
CC1(CN)CCCN(c2cnc3c(-c4ccccc4Cl)n[nH]c3n2)CC1 (stereo not shown) [Compound 13] | > 5.00
NC1(CO)CCN(c2cnc3c(-c4ccccc4Cl)n[nH]c3n2)CC1 [Compound 56] | > 5.00
CNCC1(C)CCN(c2cnc3c(-c4ccccc4Cl)n[nH]c3n2)CC1 [Compound 36] | 4.00 to 5.00
N[C@@H]1CC12CCN(c1cnc3c(-c4ccccc4Cl)n[nH]c3n1)CC2 [Compound 49] | 4.00 to 5.00
NC1CC12CCN(c1cnc3c(-c4ccccc4Cl)n[nH]c3n1)CC2 (stereo not shown) [Compound 18] | > 5.00
